Data on one molecule can be found in ChEMBL document CHEMBL3120103, “CK2 inhibitor CX4945 induces sequential inactivation of proteins in the signaling pathways related with cell migration and suppresses metastasis of A549 human lung cancer cells” (Bioorg Med Chem Lett, 2013).

Data set [1] concerns A549. Put plainly: Antimigratory activity against human A549 cells after 24 hrs by wound-healing assay. The data set is classed as functional, cell-based.
Data set [2] has as its system A549. As to the kind of experiment: Reduction in MMP9 expression in human A549 cells at 1 to 10 uM after 24 hrs by Western blot method. The data set is classed as functional, cell-based. For orientation: Immunoblotting shows a protein as a band on a membrane.
The test system of data set [3] is A549. As to the kind of experiment: Reduction in MMP2 expression in human A549 cells at 1 to 10 uM after 24 hrs by Western blot method. The data set is classed as functional, cell-based.
Data set [4] concerns A549. Put plainly: Cytotoxicity against human A549 cells assessed as viable cells at 1 to 30 uM after 24 hrs by LDH assay. In kind it is cell-based. Particulars: a549, 24 h.
Data set [5] deals with NCI-H1299. As to the kind of experiment: Antimigratory activity against human H1299 cells after 24 hrs by wound-healing assay. In kind it is functional, cell-based.
Data set [6] deals with NCI-H1299. As to the kind of experiment: Antiinvasive activity against human H1299 cells after 3 hrs by Boyden chamber invasion assay. In kind it is functional, cell-based.
The test system of data set [7] is A549. Put plainly: Antiinvasive activity against human A549 cells after 3 hrs by Boyden chamber invasion assay. In kind it is functional, cell-based.
Data set [8] can be described thus: Cytotoxicity against human A549 cells assessed as viable cells at 1 to 30 uM after 24 hrs by CCK8 assay. The data set is classed as cell-based. Particulars: read-out: Activity. A general note: Tetrazolium dyes change colour on reduction, which living cells bring about.
The nature of data set [9]: Cytotoxicity against human A549 cells assessed as viable cells at 1 to 30 uM after 3 hrs by CCK8 assay. Particulars: read-out: Activity. In kind it is cell-based.

Structures are written as SMILES. Activity calls are given as the source filed them. No cut-off for these calls is given here.

Regarding `O=C(O)c1ccc2c(c1)nc(Nc1cccc(Cl)c1)c1ccncc12` [SILMITASERTIB], the Activity entry with A549 [1] was “Dose-dependent effect”; in the data set on A549 [4], “Non-toxic”; in the data set on NCI-H1299 [5] it was “Dose-dependent effect”; with NCI-H1299 [6] it was “Dose-dependent effect”; in the data set with A549 [7] it was “Dose-dependent effect”. The outcome in the data set on A549 [2] and with A549 [3] was inactive. Further, in data set [8], the viability at 24 h, up to 30 µM was more than 70%. Besides, the viability at 3 h, up to 30 µM in data set [9] was more than 70%.
